pIC50, pKi: −log10 of the molar value. Counter-ions that a name gives are not always drawn.

Holding throughout (type): cell-based
Test [1] addresses T1, 5-HT2C receptor (Homo sapiens, UniProt P28335).
T1 construct: expressed in transfected cells; host or cells: NIH3T3 cells, pSI mammalian expression vector
T1 sequence (P28335 33-458): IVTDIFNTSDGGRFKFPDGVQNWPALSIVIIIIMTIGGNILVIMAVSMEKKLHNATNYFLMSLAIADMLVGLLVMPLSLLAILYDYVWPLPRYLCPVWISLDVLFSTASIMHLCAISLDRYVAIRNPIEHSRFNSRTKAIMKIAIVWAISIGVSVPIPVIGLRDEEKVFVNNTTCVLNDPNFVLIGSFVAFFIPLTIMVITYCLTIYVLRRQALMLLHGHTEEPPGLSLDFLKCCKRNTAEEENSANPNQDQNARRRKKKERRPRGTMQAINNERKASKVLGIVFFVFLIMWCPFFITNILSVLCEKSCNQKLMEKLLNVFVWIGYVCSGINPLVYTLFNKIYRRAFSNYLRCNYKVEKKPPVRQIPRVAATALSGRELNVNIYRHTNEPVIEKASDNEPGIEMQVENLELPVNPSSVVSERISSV
As to the kind of experiment: R-SAT functional receptor assay, antagonist activity at 5-HT2C. How it is done: (§1) Receptor Selection and Amplification (R-SAT®) Assays. The functional receptor assay, Receptor Selection and Amplification Technology (R-SAT®), was used (with minor modifications from the procedure described previously (Brann, M. R. U.S. Pat. No. 5,707,798, 1998; Chem. Abstr. 1998, 128, 111548) to screen compounds for efficacy at the 5-HT2A receptor. Briefly, NIH3T3 cells were grown in 96 well tissue culture plates to 70-80% confluence. Cells were transfected for 12-16 h with plasmid DNAs using superfect (Qiagen Inc.) as per manufacturer's protocols. R-SAT's were generally performed with 50 ng/well of receptor and 20 ng/well of β-galactosidase plasmid DNA. All receptor and G-protein constructs used were in the pSI mammalian expression vector (Promega Inc) as described previously. The 5-HT2A or 5-HT2C receptor gene was amplified by nested PCR from brain cDNA using the oligodeoxynucleotides based on the published sequence (Saltzman et. al, Biochem. Biophys. Res. Comm. 1991, 181, 1469). For large-scale transfections, cells were transfected for 12-16 h, then trypsinized and frozen in DMSO. Frozen cells were later thawed, plated at 10,000-40,000 cells per well of a 96 well plate that contained drug. With both methods, cells were then grown in a humidified atmosphere with 5% ambient CO2 for five days. Media was then removed from the plates and marker gene activity was measured by the addition of the β-galactosidase substrate o-nitrophenyl β-D-galactopyranoside (ONPG, in PBS with 5% NP-40). The resulting colorimetric reaction was measured in a spectrophotometric plate reader (Titertek Inc.) at […]. All data were analyzed using the computer program XLFit (IDBSm). Efficacy is the percent maximal repression compared to repression by a control compound (ritanserin in the case of 5-HT2A). pIC50 is the negative of the log(IC50), where IC50 is the calculated concentration in Molar that produces 50% maximal repression. Various metabolites of N-(1-methylpiperidin-4-yl)-N-(4-fluorophenylmethyl)-N′-(4-(2-methylpropyloxy)phenylmethyl) carbamide, including the compounds of Formulae (I), (II), (III), (IV) and (V) as well as other metabolites, were assayed as described herein.

For test [2], the target named is T2, 5-HT2A receptor (Homo sapiens, UniProt P28223).
T2 construct: expressed in transfected cells; host or cells: NIH3T3 cells, pSI mammalian expression vector
T2 sequence (P28223 whole entry): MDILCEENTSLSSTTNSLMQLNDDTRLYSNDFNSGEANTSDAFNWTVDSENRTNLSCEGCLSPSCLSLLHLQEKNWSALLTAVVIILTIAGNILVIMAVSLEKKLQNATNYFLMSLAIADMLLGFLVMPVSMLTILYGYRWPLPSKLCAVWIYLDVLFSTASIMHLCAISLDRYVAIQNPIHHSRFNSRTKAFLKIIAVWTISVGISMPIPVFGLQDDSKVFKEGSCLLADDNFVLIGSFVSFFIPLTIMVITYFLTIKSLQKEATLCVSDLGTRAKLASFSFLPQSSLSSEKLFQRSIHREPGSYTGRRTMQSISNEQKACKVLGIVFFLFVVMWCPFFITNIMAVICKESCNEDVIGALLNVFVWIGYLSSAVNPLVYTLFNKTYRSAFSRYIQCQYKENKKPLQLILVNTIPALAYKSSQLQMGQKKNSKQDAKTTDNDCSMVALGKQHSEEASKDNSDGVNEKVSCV
As to the kind of experiment: R-SAT functional receptor assay, antagonist activity at 5-HT2A. The procedure:
as §1

The target in test [3] is T2, 5-HT2A receptor. Description: R-SAT functional receptor assay, inverse agonist activity at 5-HT2A. The procedure: as §1
Test [4] addresses T1, 5-HT2C receptor. Description: R-SAT functional receptor assay, inverse agonist activity at 5-HT2C. The procedure: as §1, with “Various metabolites of N-(1-methylpiperidin-4-yl)-N-(4-fluorophenylmethyl)-N′-(4-(2-methylpropyloxy)phenylmethyl) carbamide, including the compounds of Formulae (I), (II), (III), (IV) and (V) as well as other metabolites, were assayed as described herein.” left out

In the case of `CN1CCC(N(Cc2ccc(F)cc2)C(=O)NCc2ccc(O)cc2)CC1` [Formula (I), N-(4-Fluorobenzyl)-N-(1-methylpiperidin-4-yl)-N′-(4-hydroxybenzyl)carbamide Hydrochloride], the pKi was 6.50 in test [1] and 7.90 in test [2]. For the same compound, the pIC50 in test [3] was 7.50.
Taken in the same sequence, the figures for `CC(C)COc1ccc(CNC(=O)N(Cc2ccc(F)cc2)C2CCNCC2)cc1` [Formula (II), N-(4-Fluorobenzyl)-N-(piperidin-4-yl)-N′-(4-isobutoxybenzyl)carbamide Hydrochloride] were 7.00, 8.90 and 8.60.
Consider `CN1CCC(N(Cc2ccc(F)cc2)C(=O)NCc2ccc(OCC(C)(C)O)cc2)CC1` [Formula (III), N-(4-Fluorobenzyl)-N-(1-methylpiperidin-4-yl)-N′-[4-(2-hydroxy)isobutoxybenzyl]carbamide Hydrochloride], for which the pKi in test [1] was 6.80; in test [2], 9.00. Further, the pIC50 is 8.70 in test [3] and 6.10 in test [4].
As to `C[C@H](CO)COc1ccc(CNC(=O)N(Cc2ccc(F)cc2)C2CCN(C)CC2)cc1` [Formula (IV), N-(4-Fluorobenzyl)-N-(1-methyl-piperidin-4-yl)-N′-(4-(R)-[(3-hydroxy)-isobutoxy]benzyl)carbamide], the pKi in test [1] is 6.80. The pIC50 in test [3] was 8.50; in test [4] it was 6.70.
Regarding `CC(C)COc1ccc(CNC(=O)N(Cc2ccc(F)cc2)C2CC[N+](C)([O-])CC2)cc1` (centres unmarked) [Formula (V), N-(4-Fluorobenzyl)-N-(1-methyl-1-oxopiperidin-4-yl)-N′-(4-isobutoxybenzyl)carbamide], the figures for the pKi in test [1] and in test [2] were 6.40 and 7.50, respectively. Also, the pIC50 in test [3] is 7.50; in test [4], 5.70.

One may read the pKi as −log10 of the Ki, conventionally taken in molar units. A word on the pIC50: it is the negative decadic logarithm of the IC50, by convention in mol/L. Lower therefore signals a high IC50.
